In ChEMBL document CHEMBL1136657, “Novel ether derivatives of mannopeptimycin glycopeptide antibiotic” (2003):
Values after ≈ are worked out from the molar mass of the structure shown. Each block holds one compound with its values, some of them ahead of it.

How the values were obtained:
[1] = system: Enterococcus faecalis; test: Minimum inhibitory concentration against Enterococcus faecalis was determined; Range is 2-4 ug/mL; assay type: functional
[2] = system: Streptococcus; test: Minimum inhibitory concentration against Streptococcus was determined; assay type: functional
[3] = system: Mus musculus; test: In vivo activity against Staphylococcus aureus smith was determined after iv administration in mice; assay type: functional
[4] = system: Staphylococcus aureus; test: Minimum inhibitory concentration against Staphylococcus aureus smith; assay type: functional
[5] = Minimum inhibitory concentration against Gram(-) sp. was determined; Range is 32->128 ug/mL; assay type: functional
[6] = system: Candida albicans; test: Minimum inhibitory concentration against Candida albicans was determined; assay type: functional
[7] = system: Staphylococcus aureus; test: Minimum inhibitory concentration against Staphylococcus aureus (MSSA) was determined; Range is 1-4 ug/mL; assay type: functional
[8] = system: Staphylococcus aureus; test: Minimum inhibitory concentration against Staphylococcus aureus (MSCNS) was determined; Range is <=0.12-0.5 ug/mL; assay type: functional
[9] = system: Staphylococcus aureus; test: Minimum inhibitory concentration against Staphylococcus aureus (MRSA) was determined; Range is […] ug/mL; assay type: functional
[10] = system: Staphylococcus aureus; test: Minimum inhibitory concentration against Staphylococcus aureus (MRCNS) was determined; Range is 0.25-1 ug/mL; assay type: functional
[11] = system: Enterococcus faecium; test: Minimum inhibitory concentration against Enterococcus faecium was determined; Range is 2-4 ug/mL; assay type: functional
[12] = system: Staphylococcus aureus; test: Minimum inhibitory concentration against Staphylococcus aureus (MSCNS) was determined; Range is 0.5-1 ug/mL; assay type: functional
[13] = Minimum inhibitory concentration against Gram(-) sp. was determined; assay type: functional
[14] = system: Staphylococcus aureus; test: Minimum inhibitory concentration against Staphylococcus aureus (MSSA) was determined; Range is 2-4 ug/mL; assay type: functional
[15] = system: Enterococcus faecalis; test: Minimum inhibitory concentration against Enterococcus faecalis was determined; assay type: functional
[16] = system: Staphylococcus aureus; test: Minimum inhibitory concentration against Staphylococcus aureus (MRSA) was determined; assay type: functional
[17] = system: Staphylococcus aureus; test: Minimum inhibitory concentration against Staphylococcus aureus (MRCNS) was determined; Range is 1-4 ug/mL; assay type: functional
[18] = system: Enterococcus faecalis; test: Minimum inhibitory concentration against Enterococcus faecalis (GC 6189) was determined; assay type: functional
[19] = system: Pseudomonas aeruginosa; test: Minimum inhibitory concentration against Pseudomonas aeruginosa (GC 2214) control was determined; assay type: functional
[20] = system: Morganella morganii; test: Minimum inhibitory concentration against Morganella morganii (GC 4381) was determined; assay type: functional
[21] = system: Staphylococcus haemolyticus; test: Minimum inhibitory concentration against Staphylococcus haemolyticus (GC 4546) was determined
[22] = system: Streptococcus pneumoniae; test: Minimum inhibitory concentration against Streptococcus pneumoniae (GC 1894) was determined; assay type: functional
[23] = system: Enterococcus faecalis; test: Minimum inhibitory concentration against Enterococcus faecalis (GC 2242) was determined; assay type: functional
[24] = system: Enterococcus faecalis; test: Minimum inhibitory concentration against Enterococcus faecalis (GC 4555) was determined; assay type: functional
[25] = system: Candida albicans; test: Minimum inhibitory concentration against Candida albicans GC 3066 was determined; assay type: functional
[26] = system: Streptococcus pneumoniae; test: Minimum inhibitory concentration against Streptococcus pneumoniae (GC 6242) was determined; assay type: functional
[27] = system: Streptococcus pyogenes; test: Minimum inhibitory concentration against Streptococcus pyogenes (GC 4563) was determined; assay type: functional
[28] = Minimum inhibitory concentration against SCN (GC 4551) was determined; assay type: functional
[29] = system: Enterococcus avium; test: Minimum inhibitory concentration against Enterococcus avium (GC 4558) was determined; assay type: functional
[30] = system: Enterococcus faecalis; test: microbe, parasite or virus in culture
[31] = Minimum inhibitory concentration against SCN (GC 4548) was determined; assay type: functional
[32] = system: Enterococcus faecalis; test: Minimum inhibitory concentration against Enterococcus faecalis (GC 3059) was determined; assay type: functional
[33] = system: Escherichia coli; test: Minimum inhibitory concentration against Escherichia coli (GC 4564) was determined; assay type: functional
[34] = system: Streptococcus; test: Minimum inhibitory concentration against Streptococcus was determined; Range is <=0.12-0.5 ug/mL; assay type: functional
[35] = Minimum inhibitory concentration against SCN (GC 4549) was determined; assay type: functional
[36] = system: Enterococcus faecium; test: Minimum inhibitory concentration against Enterococcus faecium (GC 2243) was determined; assay type: functional
[37] = system: Enterococcus faecalis; test: Minimum inhibitory concentration against Enterococcus faecalis (GC 4553) was determined; assay type: functional
[38] = system: Micrococcus luteus; test: Minimum inhibitory concentration against Sarcina lutea (GC 4562) was determined; assay type: functional
[39] = system: Enterococcus faecalis; test: Minimum inhibitory concentration against Enterococcus faecalis (GC 2691) was determined; assay type: functional
[40] = system: Escherichia coli; test: Minimum inhibitory concentration against Escherichia coli (GC 4560) was determined; assay type: functional
[41] = Minimum inhibitory concentration against SCN (GC 4547) was determined; assay type: functional
[42] = Minimum inhibitory concentration against SCN (GC 6257) was determined; assay type: functional
[43] = system: Enterococcus faecalis; test: Minimum inhibitory concentration against Enterococcus faecalis (GC 4554) was determined; assay type: functional
[44] = system: Escherichia coli; test: Minimum inhibitory concentration against Escherichia coli (GC 2203) was determined; assay type: functional
[45] = system: Streptococcus pneumoniae; test: Minimum inhibitory concentration against Streptococcus pneumoniae (GC 4565) was determined; assay type: functional
[46] = system: Enterococcus faecalis; test: Minimum inhibitory concentration against Enterococcus faecalis (GC 4552) was determined; assay type: functional
[47] = system: Streptococcus agalactiae; test: Minimum inhibitory concentration against Streptococcus agalactiae (GC4564) was determined; assay type: functional
[48] = Mus musculus, iv, read-out: ED50

MIC [1]: 2 µg/mL (≈ 1.35 µM)
MIC [2]: < 0.12 µg/mL
MIC [4]: 1 µg/mL (≈ 0.677 µM)
MIC [5]: 32 µg/mL (≈ 21.7 µM)
MIC [6]: > 128 µg/mL
MIC [7]: 1 µg/mL (≈ 0.677 µM)
MIC [8]: ≤ 0.12 µg/mL
MIC [9]: 1 µg/mL (≈ 0.677 µM)
MIC [10]: 0.25 µg/mL (≈ 0.169 µM)
MIC [11]: 2 µg/mL (≈ 1.35 µM)
SMILES: C[C@@H](c1ccccc1)[C@@H]1NC(=O)CNC(=O)[C@H](CO)NC(=O)[C@@H]([C@@H](O)[C@@H]2CN=C(N)N2[C@H]2O[C@H](O)[C@@H](O)[C@H](O)[C@@H]2O)NC(=O)[C@H]([C@@H](O)[C@@H]2CN=C(N)N2)NC(=O)[C@@H](Cc2ccc(O[C@H]3O[C@H](CO)[C@@H](O[C@H]4O[C@H](CO)[C@@H](OCc5ccc(OCc6ccccc6)cc5)[C@H](O)[C@@H]4O)[C@H](O)[C@@H]3O)cc2)NC1=O
ED50 [3, 48]: 0.06 mg/kg

MIC [2]: ≤ 0.12 µg/mL
MIC [4]: 2 µg/mL (≈ 1.35 µM)
MIC [12]: 0.5 µg/mL (≈ 0.338 µM)
MIC [13]: > 128 µg/mL
MIC [14]: 2 µg/mL (≈ 1.35 µM)
MIC [6]: > 128 µg/mL
MIC [15]: 4 µg/mL (≈ 2.71 µM)
MIC [16]: 4 µg/mL (≈ 2.71 µM)
MIC [17]: 1 µg/mL (≈ 0.677 µM)
MIC [11]: 2 µg/mL (≈ 1.35 µM)
SMILES: C[C@@H](c1ccccc1)[C@@H]1NC(=O)CNC(=O)[C@H](CO)NC(=O)[C@@H]([C@@H](O)[C@@H]2CN=C(N)N2[C@H]2O[C@H](O)[C@@H](O)[C@H](O)[C@@H]2O)NC(=O)[C@H]([C@@H](O)[C@@H]2CN=C(N)N2)NC(=O)[C@@H](Cc2ccc(O[C@H]3O[C@H](CO)[C@@H](OC4O[C@H](COCc5ccc(OCc6ccccc6)cc5)[C@@H](O)[C@H](O)[C@@H]4O)[C@H](O)[C@@H]3O)cc2)NC1=O (stereo partly specified)
ED50 [3, 48]: 0.25 mg/kg

SMILES: CN[C@H](CC(C)C)C(=O)N[C@H]1C(=O)N[C@@H](CC(N)=O)C(=O)N[C@H]2C(=O)N[C@H]3C(=O)N[C@H](C(=O)N[C@H](C(=O)O)c4cc(O)cc(O)c4-c4cc3ccc4O)[C@H](O)c3ccc(c(Cl)c3)Oc3cc2cc(c3O[C@@H]2O[C@H](CO)[C@@H](O)[C@H](O)[C@H]2O[C@H]2C[C@](C)(N)[C@H](O)[C@H](C)O2)Oc2ccc(cc2Cl)[C@H]1O [VANCOMYCIN]
MIC [18]: > 64 µg/mL
MIC [19]: > 64 µg/mL
MIC [20]: > 64 µg/mL
MIC [21]: 1 µg/mL (≈ 0.69 µM)
MIC [22]: 0.12 µg/mL (≈ 0.0828 µM)
MIC [23]: > 64 µg/mL
MIC [24]: 2 µg/mL (≈ 1.38 µM)
MIC [25]: > 64 µg/mL
MIC [26]: 0.5 µg/mL (≈ 0.345 µM)
ED50 [3]: 1 mg/kg
ED50 [3, 48]: 0.5 mg/kg
MIC [27]: 0.25 µg/mL (≈ 0.173 µM)
MIC [28]: 2 µg/mL (≈ 1.38 µM)
MIC [29]: > 64 µg/mL
MIC [30]: 0.5 µg/mL (≈ 0.345 µM)
MIC [31]: 2 µg/mL (≈ 1.38 µM)
MIC [32]: > 64 µg/mL
MIC [33]: > 64 µg/mL
MIC [13]: > 128 µg/mL
MIC [34]: ≤ 0.12 µg/mL
MIC [35]: 0.5 µg/mL (≈ 0.345 µM)
MIC [36]: > 64 µg/mL
MIC [37]: 0.5 µg/mL (≈ 0.345 µM)
MIC [38]: 1 µg/mL (≈ 0.69 µM)
MIC [39]: 1 µg/mL (≈ 0.69 µM)
MIC [6]: > 128 µg/mL
MIC [40]: 0.5 µg/mL (≈ 0.345 µM)
MIC [41]: 2 µg/mL (≈ 1.38 µM)
MIC [42]: 0.5 µg/mL (≈ 0.345 µM)
MIC [43]: 0.5 µg/mL (≈ 0.345 µM)
MIC [44]: > 64 µg/mL
MIC [45]: 0.25 µg/mL (≈ 0.173 µM)
MIC [46]: 1 µg/mL (≈ 0.69 µM)
MIC [47]: 0.5 µg/mL (≈ 0.345 µM)
